Measured values taken from ChEMBL document CHEMBL3739292, “Synthesis and Biological Evaluation of Polar Functionalities Containing Nitrodihydroimidazooxazoles as Anti-TB Agents” (ACS Med Chem Lett, 2015).
Converted amounts (≈) assume the structure as drawn.

Key:
[1] = system: Mycobacterium tuberculosis; assay: Antimicrobial activity against multidrug-resistant Mycobacterium tuberculosis by resazurin microtiter assay; assay type: functional
[2] = system: Mycobacterium tuberculosis; assay: Antimicrobial activity against rifamycin-resistant Mycobacterium tuberculosis by resazurin microtiter assay; assay type: functional

Compound | MIC [1] [µg/mL] | MIC [2] [µg/mL]
CCOc1ccc(NC(=O)Nc2ccc(OC[C@@]3(C)Cn4cc([N+](=O)[O-])nc4O3)cc2)cc1 | > 8 | 1 (≈ 2.21 µM)
C[C@]1(COc2ccc(N3CCC(Oc4ccc(OC(F)(F)F)cc4)CC3)cc2)Cn2cc([N+](=O)[O-])nc2O1 | 0.02 (≈ 0.0374 µM) | 0.005 (≈ 0.00935 µM)
C[C@]1(COc2ccc(S(=O)(=O)N3CCCCC3)cc2)Cn2cc([N+](=O)[O-])nc2O1 | > 8 | 3.34 (≈ 7.91 µM)
C[C@]1(COc2ccc(-n3cc(COc4ccc(OC(F)(F)F)cc4)nn3)cc2)Cn2cc([N+](=O)[O-])nc2O1 | 0.12 (≈ 0.225 µM) | 0.06 (≈ 0.113 µM)
C[C@]1(COc2ccc(S(=O)(=O)N3CCOCC3)cc2)Cn2cc([N+](=O)[O-])nc2O1 | 2 (≈ 4.71 µM) | 1 (≈ 2.36 µM)
C[C@]1(COc2ccc(N3CCN(S(=O)(=O)c4ccc(F)cc4)CC3)cc2)Cn2cc([N+](=O)[O-])nc2O1 | > 8 | 1 (≈ 1.93 µM)
COc1c(N2CCNC(C)C2)c(F)cc2c(=O)c(C(=O)O)cn(C3CC3)c12 (centres undefined) [GATIFLOXACIN] | 0.5 (≈ 1.33 µM) | 
C[C@]1(COc2ccc(NC(=O)Nc3ccc(Cl)cc3)cc2)Cn2cc([N+](=O)[O-])nc2O1 | > 8 | 0.67 (≈ 1.51 µM)
COc1ccc(NC(=S)Nc2ccc(OC[C@@]3(C)Cn4cc([N+](=O)[O-])nc4O3)cc2)cc1 | > 8 | 2 (≈ 4.39 µM)
CO[C@H]1/C=C/O[C@@]2(C)Oc3c(C)c(O)c4c(O)c(c(/C=N/N5CCN(C)CC5)c(O)c4c3C2=O)NC(=O)/C(C)=C\C=C\[C@H](C)[C@H](O)[C@@H](C)[C@@H](O)[C@@H](C)[C@H](OC(C)=O)[C@@H]1C [RIFAMPIN] | 128 (≈ 156 µM) | 256 (≈ 311 µM)
